Measured values as given in US20110144159A1, “ETHER BENZYLIDENE PIPERIDINE ARYL CARBOXAMIDE COMPOUNDS USEFUL AS FAAH INHIBITORS” (Pfizer Inc, priority 2008, published 2011).

Target: T1, Human FAAH (Homo sapiens, UniProt O00519)
T1 construct: made in house
T1 sequence (O00519 32-579 limits assumed): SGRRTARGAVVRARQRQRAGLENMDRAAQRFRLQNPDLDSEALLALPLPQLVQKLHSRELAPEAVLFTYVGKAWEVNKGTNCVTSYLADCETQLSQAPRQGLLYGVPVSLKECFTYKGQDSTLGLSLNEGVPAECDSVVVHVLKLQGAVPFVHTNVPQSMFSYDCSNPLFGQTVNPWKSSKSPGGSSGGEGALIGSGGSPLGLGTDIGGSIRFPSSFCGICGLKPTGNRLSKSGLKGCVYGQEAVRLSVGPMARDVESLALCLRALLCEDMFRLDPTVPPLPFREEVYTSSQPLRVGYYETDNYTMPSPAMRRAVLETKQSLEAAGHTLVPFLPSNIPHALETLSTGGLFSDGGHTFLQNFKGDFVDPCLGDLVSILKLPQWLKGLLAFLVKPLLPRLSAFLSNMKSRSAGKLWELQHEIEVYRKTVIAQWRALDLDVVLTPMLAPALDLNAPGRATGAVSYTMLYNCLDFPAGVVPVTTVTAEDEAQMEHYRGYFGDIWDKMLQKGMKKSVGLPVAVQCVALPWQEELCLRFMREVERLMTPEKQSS
Assay: FAAH assay (glutamate dehydrogenase-coupled, oleamide substrate, absorbance at 340 nm)
Type: biochemical
Conditions: further compounds, read-out: hFAAH_Kinact/Ki—StL
How it was run: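 Human FAAH (1-4 nM) with 50 μM oleamide, coupled to glutamate dehydrogenase/NADH, pH 7.4, 7.5% DMSO and EtOH, 30° C; A340 read every 30 s for 90 min. Irreversible inhibition fitted for kobs per concentration, then Ki and kinact from kobs vs. [I].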

kinact/KI | Molecule
404 M⁻¹ s⁻¹ | COc1cnc(NC(=O)N2CCC(=Cc3cccc(OCC4CCCCO4)c3)CC2)cn1 (stereo not drawn) [N-(5-methoxypyrazin-2-yl)-4-[3-(tetrahydro-2H-pyran-2-ylmethoxy)benzylidene]piperidine-1-carboxamide]
950 M⁻¹ s⁻¹ | COc1ccc(NC(=O)N2CCC(=Cc3cccc(OCC4CCCCO4)c3)CC2)cn1 (stereo not drawn) [N-(6-methoxypyridin-3-yl)-4-[3-(tetrahydro-2H-pyran-2-ylmethoxy)benzylidene]piperidine-1-carboxamide]
536 M⁻¹ s⁻¹ | Cc1ccc(NC(=O)N2CCC(=Cc3cccc(OCC4CCCCO4)c3)CC2)cn1 (stereo not drawn) [N-(6-methylpyridin-3-yl)-4-[3-(tetrahydro-2H-pyran-2-ylmethoxy)benzylidene]piperidine-1-carboxamide]
3130 M⁻¹ s⁻¹ | O=C(Nc1cccnc1)N1CCC(=Cc2cccc(OCC3CCCCO3)c2)CC1 (stereo not drawn) [N-pyridin-3-yl-4-[3-(tetrahydro-2H-pyran-2-ylmethoxy)benzylidene]piperidine-1-carboxamide]

Same assay, conditions: irreversible inhibition potency

Molecule | hFAAH KInact/K
CCC(COC)Oc1cccc(C=C2CCN(C(=O)Nc3cccnn3)CC2)c1 (stereo not drawn) [Example 98, 4-{3-[1-(methoxymethyl)propoxy]benzylidene}-N-pyridazin-3-ylpiperidine-1-carboxamide] | 276 M⁻¹ s⁻¹
CC(COc1cccc(C=C2CCN(C(=O)Nc3cccnn3)CC2)c1)CC(F)(F)F (stereo not drawn) [Example 99, N-pyridazin-3-yl-4-[3-(4,4,4-trifluoro-2-methylbutoxy)benzylidene]piperidine-1-carboxamide] | 10896 M⁻¹ s⁻¹
O=C(Nc1cccnn1)N1CCC(=Cc2cccc(OCC3Cc4ccccc4O3)c2)CC1 (stereo not drawn) [Example 100, 4-[3-(2,3-dihydro-1-benzofuran-2-ylmethoxy)benzylidene]-N-pyridazin-3-ylpiperidine-1-carboxamide] | 2505 M⁻¹ s⁻¹
CC1CCC(COc2cccc(C=C3CCN(C(=O)Nc4cccnn4)CC3)c2)CC1 (stereo not drawn) [Example 101, 4-{3-[(4-methylcyclohexyl)methoxy]benzylidene}-N-pyridazin-3-ylpiperidine-1-carboxamide] | 3281 M⁻¹ s⁻¹
CC1CN(CCOc2cccc(C=C3CCN(C(=O)Nc4cccnn4)CC3)c2)CC(C)O1 (stereo not drawn) [Example 102, 4-{3-[2-(2,6-dimethylmorpholin-4-yl)ethoxy]benzylidene}-N-pyridazin-3-ylpiperidine-1-carboxamide] | 207 M⁻¹ s⁻¹
O=C(Nc1cccnn1)N1CCC(=Cc2cccc(OCC3CCC(C(F)(F)F)CC3)c2)CC1 (stereo not drawn) [Example 103, N-pyridazin-3-yl-4-(3-{[4-(trifluoromethyl)cyclohexyl]methoxy}benzylidene)piperidine-1-carboxamide] | 1537 M⁻¹ s⁻¹
N-pyridazin-3-yl-4-[3-(2-pyridin-4-ylethoxy)benzylidene]piperidine-1-carboxamide [Example 79] | 3834 M⁻¹ s⁻¹
N-pyridazin-3-yl-4-[3-(pyridin-2-ylmethoxy)benzylidene]piperidine-1-carboxamide [Example 46] | 353 M⁻¹ s⁻¹

The next lines start with the values.

hFAAH KInact/K | Molecule
4050 M⁻¹ s⁻¹ | O=C(Nc1cccnn1)N1CCC(=Cc2cccc(OCC3CCCCO3)c2)CC1 (stereo not drawn) [Example 104, N-pyridazin-3-yl-4-[3-(tetrahydro-2H-pyran-2-ylmethoxy)benzylidene]piperidine-1-carboxamide]
6410 M⁻¹ s⁻¹ | Cc1ncsc1CCOc1cccc(C=C2CCN(C(=O)Nc3cccnn3)CC2)c1 [Example 105, 4-{3-[2-(4-methyl-1,3-thiazol-5-yl)ethoxy]benzylidene}-N-pyridazin-3-ylpiperidine-1-carboxamide]
16400 M⁻¹ s⁻¹ | O=C(Nc1cccnn1)N1CCC(=Cc2cccc(OC3CCC(F)(F)CC3)c2)CC1 [Example 106, 4-{3-[(4,4-difluorocyclohexyl)oxy]benzylidene}-N-pyridazin-3-ylpiperidine-1-carboxamide]
